Source: paper PMC8836147, “Design, Synthesis and Antifungal/Nematicidal Activity of Novel 1,2,4-Oxadiazole Derivatives Containing Amide Fragments” (International Journal of Molecular Sciences, 2022)
≈ marks a conversion by molar mass, not a printed value.

Columns and labels:
S. sclerotiorum [1] = assay: In vivo curative activity assay on infected cole leaves; parameters: species or system Sclerotinia sclerotiorum; conditions: sprayed 24 h after inoculation, 72 h
From the text: (§1) Susceptible cole leaves collected from Guizhou Academy of Agricultural Sciences were used to determine the in vivo efficacy of F15 according to previous literature. […] Vaccination time was used to distinguish between the protective activity assays and curative activity assays. A 5 mm mycelia dish was placed at the widest center of the cole leaf, and it was ensured that it was not placed on the main vein of the leaf. For the protective activity assay, test compounds with different concentrations were sprayed on the leaves until the liquid reached the surface. Inoculation was conducted after 24 h. For the curative activity assay, which took place 24 h after inoculation, compounds of different concentrations were sprayed on the surfaces of the leaves until the liquid flowed. Fluopyram and sterile distilled water were used as a positive control and negative control, respectively. All of the inoculated leaves were placed inside of a 25 °C light incubator with 85% relative humidity and a 16 h photoperiod for disease development. The average diameters of the lesions were measured using the cross method after 72 h. The disease control efficacy was obtained through the following formula:Control efficacy (%) = (1 − DT/DCK) × 100%(4) where DCK represents the lesion diameter of the sterile distilled water control, and DT represents the lesion diameters of the treatment samples. Each test was carried out five times, and the experiment was performed three times.

MTT cytotoxicity assay = format: cell-based; conditions: human, L-02 normal liver cells, L-02 cells
Method: The human liver L-02 cells were obtained from the biology laboratory in Key Laboratory of Chemistry for Natural Products of Guizhou Province and Chinese Academy of Sciences (Guiyang, China). The cells were grown in Dulbecco’s Modified Eagle’s Medium (supplemented with 10% (v/v) FBS, 100 U/mL penicillin, and 100 μg/mL streptomycin) at 37 °C in a CO2 incubator (5% CO2 and 95% air, 95% humidity). The effect of some compounds on cell viability was determined with the MTT assay according to the previously published literature. A total of 5000 cells were inoculated in a 96-well plate and three wells of each concentration of test compound were used. A total of 24 h after inoculation, the cells had grown to ~60% confluency, and different concentrations of compounds were added, and then the cells were cultured for 48 h. DMSO was used as the control. A total of 20 μL of MTT solution was added to each well and incubated at 37 °C for 4 h. Formazan crystals were dissolved in 150 μL of DMSO and quantified using a microplate reader (Thermo Scientific, Vario Skan Flash, Shanghai Bio-Gene Technology Co., LTD, Shanghai, China) at 490 nm. The cytotoxicity was calculated according to following formula:Cytotoxicity (%) = [(OCK − OT)/OCK] × 100%(2) where OCK represents the optical density (OD) value of the blank control group, and OT represents the OD value of experimental group.

S. sclerotiorum [2] = assay: In vitro mycelium growth inhibition test; format: cell-based; conditions: Sclerotinia sclerotiorum, mycelial growth, mean ± SD of three replicates
B. cinerea = assay: In vitro mycelium growth inhibition test; format: cell-based; conditions: Botrytis cinerea; 50 μg/mL; mycelial growth; mean ± SD of three replicates; read-out: Inhibition Rate (%) B. cinerea
S. sclerotiorum [3] = assay: In vivo protective activity assay on infected cole leaves; parameters: species or system Sclerotinia sclerotiorum; conditions: sprayed 24 h before inoculation, 72 h
From the text: as §1

A. besseyi = assay: microbe, parasite or virus in culture; conditions: Aphelenchoides besseyi, 48 h, read-out: Corrected Mortality Rate ± SD (%) A. besseyi
M. incognita = assay: microbe, parasite or virus in culture; conditions: Meloidogyne incognita, 48 h, read-out: Corrected Mortality Rate ± SD (%) M. incognita
B. xylophilus = assay: microbe, parasite or virus in culture; conditions: Bursaphelenchus xylophilus, 48 h, read-out: Corrected Mortality Rate ± SD (%) B. xylophilus
C. elegans = assay: microbe, parasite or virus in culture; conditions: Caenorhabditis elegans, 48 h, read-out: Corrected Mortality Rate ± SD (%) C. elegans

## O=C(NCCc1ncc(C(F)(F)F)cc1Cl)c1ccccc1C(F)(F)F [Fluopyram, fluopyram, reference compound]
S. sclerotiorum [1]; 25 μg/mL
  Curative Effect Control Efficacy (%): 65.0%
  Curative Effect Lesion Length: 7.7 ± 0.6 mm
S. sclerotiorum [1]; 50 μg/mL
  Curative Effect Control Efficacy (%): 71.4%
  Curative Effect Lesion Length: 6.3 ± 0.2 mm
S. sclerotiorum [1]; 100 μg/mL
  Curative Effect Control Efficacy (%): 74.1%
  Curative Effect Lesion Length: 5.7 ± 0.6 mm
MTT cytotoxicity assay; 50 μg/mL
  cytotoxicity at 48 h, 50 μg/mL: 3.8 ± 2.5%
MTT cytotoxicity assay; 100 μg/mL
  cytotoxicity at 48 h, 100 μg/mL: 40.1 ± 1.2%
MTT cytotoxicity assay; 200 μg/mL
  cytotoxicity at 48 h, 200 μg/mL: 55.1 ± 0.4%
S. sclerotiorum [2]; 50 μg/mL, read-out: Inhibition Rate (%) S. sclerotiorum
  inhibition at 50 µg/mL: 93.7 ± 1.7%
S. sclerotiorum [2]; read-out: EC50 against S. sclerotiorum
  EC50: 1.2 ± 1.6 µg/mL (≈ 3.02 µM)
B. cinerea
  inhibition at 50 µg/mL: 87.3 ± 0.6%
S. sclerotiorum [3]; 25 μg/mL
  Protective Effect Control Efficacy (%): 66.8%
  Protective Effect Lesion Length: 7.9 ± 0.1 mm
S. sclerotiorum [3]; 50 μg/mL
  Protective Effect Control Efficacy (%): 69.3%
  Protective Effect Lesion Length: 7.3 ± 0.2 mm
S. sclerotiorum [3]; 100 μg/mL
  Protective Effect Control Efficacy (%): 75.6%
  Protective Effect Lesion Length: 5.8± 0.1 mm
A. besseyi
  mortality at 50 µg/mL: 100%
  mortality at 200 µg/mL: 100%
M. incognita
  mortality at 50 µg/mL: 100%
  mortality at 200 µg/mL: 100%
B. xylophilus
  mortality at 50 µg/mL: 100%
  mortality at 200 µg/mL: 100%
C. elegans
  mortality at 50 µg/mL: 100%
  mortality at 200 µg/mL: 100%
